Counter-ions that a name gives are not always drawn.
How the values were obtained:
[1] = biological target: T1, human synovial phospholipase A2 (PLA2) (Homo sapiens, UniProt P14555); experiment: in vitro inhibition of human synovial phospholipase A2 (PLA2); type: biochemical
T1 sequence (P14555 21-144): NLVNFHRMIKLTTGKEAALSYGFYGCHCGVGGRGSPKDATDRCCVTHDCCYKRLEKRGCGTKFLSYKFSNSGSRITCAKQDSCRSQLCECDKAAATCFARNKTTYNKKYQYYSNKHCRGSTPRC

[2] = biological target: T2, human cytosolic phospholipase A2 (PLA2) (Homo sapiens, UniProt P47712); experiment: in vitro inhibition of human cytosolic phospholipase A2 (PLA2); type: biochemical
T2 sequence (P47712 1-749): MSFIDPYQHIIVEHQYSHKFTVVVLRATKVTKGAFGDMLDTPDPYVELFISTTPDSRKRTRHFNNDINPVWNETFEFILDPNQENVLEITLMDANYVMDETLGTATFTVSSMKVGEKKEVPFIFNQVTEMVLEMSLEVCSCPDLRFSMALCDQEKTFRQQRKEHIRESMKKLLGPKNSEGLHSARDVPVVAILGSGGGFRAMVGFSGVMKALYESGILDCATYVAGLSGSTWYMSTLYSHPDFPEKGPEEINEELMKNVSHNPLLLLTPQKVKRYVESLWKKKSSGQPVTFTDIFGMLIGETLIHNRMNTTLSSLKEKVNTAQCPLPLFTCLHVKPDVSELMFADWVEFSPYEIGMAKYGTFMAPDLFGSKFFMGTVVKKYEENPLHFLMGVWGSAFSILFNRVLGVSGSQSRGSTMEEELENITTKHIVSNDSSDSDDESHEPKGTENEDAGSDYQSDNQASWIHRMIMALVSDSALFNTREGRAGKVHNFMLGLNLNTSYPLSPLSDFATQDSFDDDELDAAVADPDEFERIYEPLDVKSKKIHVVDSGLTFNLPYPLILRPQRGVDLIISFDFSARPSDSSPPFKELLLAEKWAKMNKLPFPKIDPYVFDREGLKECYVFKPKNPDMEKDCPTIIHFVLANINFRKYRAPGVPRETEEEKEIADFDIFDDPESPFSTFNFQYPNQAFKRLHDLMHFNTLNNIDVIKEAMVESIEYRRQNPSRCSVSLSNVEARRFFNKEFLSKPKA

[3] = biological target: binding of tritiated LTB4 to guinea pig lung membranes (Cavia porcellus, UniProt H0VYV8); experiment: biochemical; settings: for Ki: read-out: pKi (mean -log Ki) (converted)
Chain of binding of tritiated LTB4 to guinea pig lung membranes (H0VYV8 1-348): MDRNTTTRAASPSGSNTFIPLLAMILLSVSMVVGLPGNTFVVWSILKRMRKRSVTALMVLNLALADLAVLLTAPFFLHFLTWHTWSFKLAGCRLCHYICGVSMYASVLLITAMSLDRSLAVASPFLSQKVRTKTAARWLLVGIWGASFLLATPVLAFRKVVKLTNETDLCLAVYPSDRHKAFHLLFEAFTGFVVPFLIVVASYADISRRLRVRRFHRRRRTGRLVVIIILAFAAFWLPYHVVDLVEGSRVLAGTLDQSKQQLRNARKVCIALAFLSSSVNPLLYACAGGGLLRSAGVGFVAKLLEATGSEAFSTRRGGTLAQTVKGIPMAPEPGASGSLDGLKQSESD
Procedure: The effectiveness of compounds of Formula I to inhibit the binding of tritiated LTB4 to guinea pig lung membranes was determined as follows.
The binding reaction was terminated by the addition of 1 mL ice cold wash buffer (25 mM Tris-HCl, pH 7.5) followed immediately by vacuum filtration over Whatman GF/C glass fiber filters using a Brandel (Gaithersburg, Md.) 48 place harvester. The filters were washed three times with 1 mL of wash buffer. Retained radioactivity was determined by liquid scintillation counting at 50% counting efficiency using Ready Protein Plus cocktail (Beckman, Fullerton, Calif.). Nondisplaceable binding was determined in the presence of 1 μM LTB4 and was usually less than 10% of total binding. […] The data reported below is the mean -log Ki, otherwise known as the pKi, for n experiments.

SMILES | inhibition of human synovial PLA2 [1] | inhibition of human cytosolic PLA2 [2] | Ki [3] [nM] | pKi (mean -log Ki) ([3]; inhibition of [3H]-LTB4 binding, guinea pig lung membranes, mean of n experiments, ~140 pM [3H]-LTB4, 45 minutes, 30° C., pH 6.5)
CCc1cc(-c2ccccc2)c(O)cc1OCCCCCC(C)(C)c1nn[nH]n1.[Na] | in vitro inhibitors | in vitro inhibitors |  | 
CCCc1c(OCCCOc2cc(O)c(-c3ccc(F)cc3)cc2CC)ccc2c1OC(C(=O)O)CC2 (stereo not drawn) [Example 55, 8-Propyl-7-[3-[4-(4-fluorophenyl)-2-ethyl-5-hydroxyphenoxy]propoxy]-3,4-dihydro-2H-1-benzopyran-2-carboxylic acid] | in vitro inhibitors | in vitro inhibitors | 2.95 | 
CCCc1c(OCCCOc2cc(O)c(-c3ccccc3)cc2CC)cccc1OC(C)C(=O)O (stereo not drawn) [Example 56, 2-[3-[3-[(5-Ethyl-2-hydroxy[1,1'-biphenyl]-4-yl)oxy]propoxy]-2-propylphenoxy]propanoic acid] | in vitro inhibitors | in vitro inhibitors | 9.33 | 
CCc1cc(-c2ccc(F)cc2)c(O)cc1OCCCOc1cccc(C(=O)c2ccccc2C(=O)O)c1 [Example 97, 2-[3-[3-[2-Ethyl-5-hydroxy-4-(4-fluorophenyl)phenoxy]propoxy]benzoyl]benzoic acid disodium salt hemihydrate] |  |  |  | 7.67
CCCc1c(OCCCOc2cc(O)c(-c3ccc(F)cc3)cc2CC)cccc1Oc1ccccc1C(=O)O [sodium salt] |  |  | 5.62 | 
CCCc1ccc(CCC(=O)O)cc1OCCCOc1cc(O)c(-c2ccc(F)cc2)cc1CC [sodium salt] |  |  | 102 | 

Results, then the compound that gave them:

inhibition of human synovial PLA2 [1] | inhibition of human cytosolic PLA2 [2] | Ki [3] [nM] | pKi (mean -log Ki) ([3]; inhibition of [3H]-LTB4 binding, guinea pig lung membranes, mean of n experiments, ~140 pM [3H]-LTB4, 45 minutes, 30° C., pH 6.5) | SMILES
 |  | 8.32 |  | CCc1cc(-c2ccc(F)cc2)c(O)cc1OCCCOc1cccc(CCC(=O)O)c1 [Example 92, 3-(3-{3-[2-Ethyl-4-(4-fluorophenyl)-5-hydroxyphenyloxy]propoxy}phenyl)propanoic acid]
 |  | 20.9 |  | CCCc1cc(CCC(=O)O)ccc1OCCCOc1cc(O)c(-c2ccc(F)cc2)cc1CC [Example 94, 3-(4-{3-[2-Ethyl-4-(4-fluorophenyl)-5-hydroxyphenyloxy]propoxy}-3-propylphenyl)propanoic acid]
 |  | 5.5 |  | CCCc1c(CCC(=O)O)cccc1OCCCOc1cc(O)c(-c2ccc(F)cc2)cc1CC [Example 95, 3-(3-{3-[2-Ethyl-4-(4-fluorophenyl)-5-hydroxyphenyloxy]propoxy}-2-propylphenyl)propanoic acid]
 |  | 25.1 |  | CCCc1c(CCC(=O)O)cccc1OCCCOc1cc(O)c(-c2ccccc2)cc1CC [Example 96, disodium salt]

Source: US5462954A, “Substituted phenyl phenol leukotriene antagonists” (Eli Lilly and Company, priority 1994, dated 1995)
